Results on one molecule are retold here after article PMC4268426 (Contraception, 2014).

“Also recorded” adds a separate entry of the source. Like-named read-outs stand apart in the source and are kept apart here.

For data set [1] the following is noted: pharmacokinetics reported as unaffected; cited from earlier work.
For data set [2] the following is noted: human, in vivo.
A short description of another data set: clinical. The following applies: female, human, in vivo, po.

Consider `C#C[C@]1(O)CC[C@H]2[C@@H]3CCC4=CC(=O)CC[C@@H]4[C@H]3CC[C@@]21C` [norethindrone], for which, in data set [1], the “decrease in AUC with obesity (trend)” value is ~ 20% and the “decrease in Cmax with obesity (trend)” value is ~ 20%. Besides, in data set [2] (female), the “increase in AUC0-24” value came to 50% and the “increase in AUC0-∞” value was 35%. In addition, the Cmax in data set [2] (female, po, 0.35 mg) is listed as 2.09 (1.49-3.06) ng/mL. Also, the CL/F in data set [2] (po) is listed as 7.59 (6.22-10.00) L/hr. The CL/F in data set [2] (po, 0.35 mg) was 10.35 (8.55-12.38) L/hr. In the data set “clinical”, the Tmax stood at 1.32 h and the Vd/F came out at 313 L. Moreover, in the data set “clinical” (0.35 mg), the AUC(0-inf) worked out at 33.8 ng·h/mL, the AUC(0-t) came out at 16.7 ng·h/mL, the Tmax was 1.86 h and the Vd/F turned out to be 564 L. Moreover, for the setting “either group (control and treatment)”, the adverse events result is listed as “no reports of adverse events”. Where the note is “female, human, in vivo, po, 0.35 mg”, the concentration at 24 h was found to be 0.27 ng/mL. Besides, the change in half-life entry (treatment group compared to control group) is recorded as “unaltered; also recorded: no alteration; also recorded: no change”.
